Results on one molecule are retold here after publication PMC9246869, “Allosteric inhibition of PPM1D serine/threonine phosphatase via an altered conformational state” (Nature Communications, 2022).

What all share (assay type): binding
The target in assay [1] is T1, PPM1DΔflap (Homo sapiens, UniProt O15297, DEL219-231/DEL235-284/E287S/S285N).
T1 construct: PPM1D1–218-GGSNGS-288–420 (PPM1D∆flap); His(6)-SUMO (N, cleaved yes); made in house; host or cells: E. coli BL21 (DE3)
T1 sequence (O15297 with tags, fused parts or gaps DEL219-231/DEL235-284/S285N/E287S): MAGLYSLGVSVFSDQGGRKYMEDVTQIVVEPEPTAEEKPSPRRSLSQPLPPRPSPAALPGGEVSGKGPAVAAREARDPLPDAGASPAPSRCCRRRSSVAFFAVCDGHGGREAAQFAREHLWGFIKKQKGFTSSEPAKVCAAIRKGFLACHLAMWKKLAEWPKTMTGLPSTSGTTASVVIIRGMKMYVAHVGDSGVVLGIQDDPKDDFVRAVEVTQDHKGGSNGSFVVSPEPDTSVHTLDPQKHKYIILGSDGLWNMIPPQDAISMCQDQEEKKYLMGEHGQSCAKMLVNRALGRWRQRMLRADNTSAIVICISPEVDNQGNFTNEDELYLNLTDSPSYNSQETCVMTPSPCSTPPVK
In words: Differential scanning fluorimetry (DSF). The conditions noted are these: PPM1D Dflap, individual trials; in °C (unit assumed). Here is the method: (§1) The purified protein constructs were mixed in the assay buffer containing 25 mM HEPES pH 7.5, 10 mM MgCl2, 150 mM NaCl. The sample preparation for the DSF assay included incubating the protein constructs (final concentration 0.2–0.4 mg/mL) with either DMSO alone (control) or with 40 µM GSK2830371 for 30 min before the addition of the Sypro orange dye (final concentration 10×). The final reaction volume of 10 µL was pipetted into a 384 multi-well clear plate (Light Cycler 480), sealed using a foil and spun down at 1000 × g for 2 min. The fluorescence emission intensity of the Sypro Orange dye was monitored in a LightCycler-480 instrument by running the Protein Melt program. The program was run in a continuous acquisition mode from 25 °C to 95 °C with a ramp rate of 0.06 °C/s (with 10 acquisitions/°C). The data (first derivative of the fluorescence signal as a function of temperature) was analyzed using the LightCycler-480 software for measuring the Tm values with and without the compound. A separate control with buffer alone and buffer with compound was run in the same plate to subtract out the potential interactions of the buffer components and/or the compound with the dye.

Assay [2] concerns the target T2, PPM1DΔhinge (Homo sapiens, UniProt O15297, DEL155-163/G166S/M164G/T165G).
T2 construct: PPM1D1–154-GGS-167–420 (PPM1D∆hinge); His(6)-SUMO (N, cleaved yes); made in house; host or cells: E. coli BL21 (DE3)
T2 sequence (O15297 with tags, fused parts or gaps DEL155-163/M164G/T165G/G166S): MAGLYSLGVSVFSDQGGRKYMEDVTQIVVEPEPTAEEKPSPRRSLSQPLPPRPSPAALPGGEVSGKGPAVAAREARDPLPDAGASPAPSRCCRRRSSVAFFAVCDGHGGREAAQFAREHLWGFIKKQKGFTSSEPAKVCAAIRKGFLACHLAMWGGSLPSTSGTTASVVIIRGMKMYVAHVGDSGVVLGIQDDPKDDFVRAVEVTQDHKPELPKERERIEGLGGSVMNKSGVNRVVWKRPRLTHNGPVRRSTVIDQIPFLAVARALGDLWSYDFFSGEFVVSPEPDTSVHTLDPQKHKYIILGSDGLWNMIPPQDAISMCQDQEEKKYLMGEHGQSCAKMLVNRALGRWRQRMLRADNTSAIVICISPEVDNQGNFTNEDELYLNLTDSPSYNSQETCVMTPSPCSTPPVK
The assay is described as follows: Differential scanning fluorimetry (DSF). The conditions noted are these: PPM1D Dhinge, in °C (unit assumed). Here is the method:
as §1
A general note: DSF heats the sample and reads unfolding from a dye or from intrinsic fluorescence.

The target in assay [3] is T1, PPM1DΔflap. In words: Surface plasmon resonance (SPR). Here is the method:
(§2) SPR was carried out on the Biacore S200 (GE Healthcare) using Series S sensor chip NTA (GE BR-1005-32). The preparation of the chip surface was conducted according to the manufacturer’s indications. The running buffer contained 50 mM Tris (pH 7.5), 50 mM NaCl, 1 mM MgCl2, 0.5 mM TCEP, 0.005% (v/v) P20 surfactant, and 2% DMSO. PPM1D1–420 and PPM1D∆Flap were run under single-cycle mode due to the slow-off-rate kinetics. The two proteins were immobilized on the chip surface in flow cells 2 and 3 with a signal of ~1500–2000 RU at a rate of 5 μL/min while flow cell 1 was left blank as a reference. The running buffer was injected three times followed by the GSK2830371 analyte in solution. Injections were carried out at a flow rate of 50 μL/min with the analyte in a concentration series of 5-point, 3-fold ending at 400 nM top dose. The association and dissociation phases were monitored for 90 s and 600 s, respectively. Collected data were evaluated using the Biacore S200 Evaluation Software under 1:1 binding mode. PPM1D∆Hinge was run under multi-cycle mode due to its fast-on/fast-off kinetics. The protein was immobilized to give a signal of ~ 3000 RU. GSK2830371 analyte in solution was injected at a flow rate of 90 μL/min in a 10-pt, 2-fold concentration series ending at 15 μM top dose. The association and dissociation phases were monitored for 45 s and 150 s, respectively. Since GSK2830371 had issues with solubility/aggregation at high concentrations that caused artifacts in sensorgrams, only steady-state analysis was performed to extract Kd.

The target of assay [4] is T2, PPM1DΔhinge. The assay is described as follows: Surface plasmon resonance (SPR). On the procedure: as §2
In general terms: In SPR one partner is held on a chip, and binding of the other changes the refractive index at the surface.

Structures are written as SMILES. Where “and” joins values, the source holds several entries; their conditions need not be identical. Identical values can stand only once.

The Kd is the concentration at which binding is half-saturated. Usually koff stands for the first-order rate constant of dissociation. The kon is a measure of how fast the partners come together. As to `Cc1ncc(Cl)cc1NCc1ccc(C(=O)N[C@@H](CC2CCCC2)C(=O)NC2CC2)s1` [GSK2830371], the “DSF melting temperature with GSK2830371” value in assay [1] is 63.0141 and 62.619 and 62.5754 and 62.548; in assay [2] (individual trials) it was 55.7617 and 55.9693 and 55.1773 and 55.1434. For the same molecule, the “DSF melting temperature with GSK2830371, Average” value in assay [2] (average of 4 trials) was 55.5129. Besides, the Kd is 1 nM in assay [3] (PPM1DΔflap, Fig. 6A) and 1000 nM in assay [4] (PPM1DΔhinge, multi-cycle, steady-state analysis). Also, the koff in assay [3] (read-out: koff (SPR)) amounted to 0.0045 s⁻¹. In addition, the kon in assay [3] (read-out: kon (SPR)) stood at 5e+06 M⁻¹ s⁻¹. In assay [4] (PPM1DΔhinge versus PPM1D1–420), the “decrease in binding affinity by SPR upon hinge deletion” value is given as ~ 1000 fold.
